ChEMBL document CHEMBL5338754, “Identification of Binding Sites in the Nucleotide-Binding Domain of P-Glycoprotein for a Potent and Nontoxic Modulator, the Amine-Containing Monomeric Flavonoid FM04” (J Med Chem, 2023)

Experiments:
[1] = target: T1, ATP-dependent translocase ABCB1 (Homo sapiens, UniProt P08183, Q1193A); assay: Negative allosteric modulator activity at human P-gp Q1193A mutant expressed in HEK293FT cells assessed as fold change in intracellular doxorubicin accumulation using doxorubicin as substrate at 1 uM incubated for 150 mins by microplate reader assay relative to DMSO; type: cell-based; settings: 2.5 h
[2] = target: T2, ATP-dependent translocase ABCB1 (Homo sapiens, UniProt P08183, Q1193F); assay: Negative allosteric modulator activity at human P-gp Q1193F mutant expressed in HEK293FT cells assessed as fold change in intracellular doxorubicin accumulation using doxorubicin as substrate at 1 uM incubated for 150 mins by microplate reader assay relative to DMSO; type: cell-based; settings: 2.5 h
[3] = target: ATP-dependent translocase ABCB1 (Homo sapiens, UniProt P08183, I1115M); assay: Negative allosteric modulator activity at human P-gp I1115M mutant expressed in HEK293FT cells assessed as fold change in intracellular doxorubicin accumulation using doxorubicin as substrate at 1 uM incubated for 150 mins by microplate reader assay relative to DMSO; type: cell-based; settings: 2.5 h
[4] = target: ATP-dependent translocase ABCB1 (Homo sapiens, UniProt P08183, Q1193C); assay: Negative allosteric modulator activity at human P-gp Q1193C mutant expressed in HEK293FT cells assessed as increase in intracellular doxorubicin accumulation using doxorubicin as substrate at 1 uM incubated for 150 mins by microplate reader assay (reference value: 63 +/- 2.5 %); type: cell-based; settings: 2.5 h
[5] = target: T2, ATP-dependent translocase ABCB1; assay: Activation of P-gp ATPase activity in human P-gp Q1193F mutant expressed in HEK293FT cell microsomes assessed as fold change of ATPase activity at 20 uM incubated for 1 hr in presence of ATP by Glo-luminescence based microplate reader assay relative to DMSO; design: species or system Microsome
[6] = target: ATP-dependent translocase ABCB1 (Homo sapiens, UniProt P08183, I1115N); assay: Negative allosteric modulator activity at human P-gp I1115N mutant expressed in HEK293FT cells assessed as fold change in intracellular doxorubicin accumulation using doxorubicin as substrate at 1 uM incubated for 150 mins by microplate reader assay relative to DMSO; type: cell-based; settings: 2.5 h
[7] = target: T3, ATP-dependent translocase ABCB1 (Homo sapiens, UniProt P08183, Q1193T); assay: Negative allosteric modulator activity at human P-gp Q1193T mutant expressed in HEK293FT cells assessed as reversal of P-gp mediated PTX resistance by measuring sensitivity fold change incubated for 5 days by MTS assay; type: cell-based; settings: 120 h, time 5 day
[8] = target: ATP-dependent translocase ABCB1 (Homo sapiens, UniProt P08183, G1114A); assay: Negative allosteric modulator activity at human P-gp G1114A mutant expressed in HEK293FT cells assessed as increase in intracellular doxorubicin accumulation using doxorubicin as substrate at 1 uM incubated for 150 mins by microplate reader assay (reference value: 98.8 +/- 1.4 %); type: cell-based; settings: 2.5 h
[9] = target: T2, ATP-dependent translocase ABCB1; assay: Negative allosteric modulator activity at human P-gp Q1193F mutant expressed in HEK293FT cells assessed as increase in intracellular doxorubicin accumulation using doxorubicin as substrate at 1 uM incubated for 150 mins by microplate reader assay (reference value: 64.7 +/- 2.6 %); type: cell-based; settings: 2.5 h
[10] = target: ATP-dependent translocase ABCB1 (Homo sapiens, UniProt P08183, Q1193N); assay: Negative allosteric modulator activity at human P-gp Q1193N mutant expressed in HEK293FT cells assessed as reversal of P-gp mediated PTX resistance by measuring sensitivity fold change incubated for 5 days by MTS assay; type: cell-based; settings: 120 h, time 5 day
[11] = target: ATP-dependent translocase ABCB1 (Homo sapiens, UniProt P08183, I1115L); assay: Negative allosteric modulator activity at human P-gp I1115L mutant expressed in HEK293FT cells assessed as increase in intracellular doxorubicin accumulation using doxorubicin as substrate at 1 uM incubated for 150 mins by microplate reader assay (reference value: 58.9 +/- 2.2 %); type: cell-based; settings: 2.5 h
[12] = target: ATP-dependent translocase ABCB1 (Homo sapiens, UniProt P08183, L1113A); assay: Negative allosteric modulator activity at human P-gp L1113A mutant expressed in HEK293FT cells assessed as increase in intracellular doxorubicin accumulation using doxorubicin as substrate at 1 uM incubated for 150 mins by microplate reader assay (reference value: 45.6 +/- 1.5 %); type: cell-based; settings: 2.5 h
[13] = target: ATP-dependent translocase ABCB1 (Homo sapiens, UniProt P08183, T1226W); assay: Negative allosteric modulator activity at human P-gp T1226W mutant expressed in HEK293FT cells assessed as reversal of P-gp mediated PTX resistance by measuring sensitivity fold change incubated for 5 days by MTS assay; type: cell-based; settings: 120 h, time 5 day
[14] = target: ATP-dependent translocase ABCB1 (Homo sapiens, UniProt P08183); assay: Negative allosteric modulator activity at human wildtype P-gp expressed in HEK293FT cells assessed as fold change in intracellular doxorubicin accumulation using doxorubicin as substrate at 1 uM incubated for 150 mins by microplate reader assay relative to DMSO; type: cell-based; settings: 2.5 h
[15] = target: ATP-dependent translocase ABCB1 (Homo sapiens, UniProt P08183, G1114V); assay: Negative allosteric modulator activity at human P-gp G1114V mutant expressed in HEK293FT cells assessed as increase in intracellular doxorubicin accumulation using doxorubicin as substrate at 1 uM incubated for 150 mins by microplate reader assay (reference value: 102 +/- 2.6 %); type: cell-based; settings: 2.5 h
[16] = target: ATP-dependent translocase ABCB1 (Homo sapiens, UniProt P08183, Q1193E); assay: Negative allosteric modulator activity at human P-gp Q1193E mutant expressed in HEK293FT cells assessed as increase in intracellular doxorubicin accumulation using doxorubicin as substrate at 1 uM incubated for 150 mins by microplate reader assay (reference value: 62.9 +/- 1.4 %); type: cell-based; settings: 2.5 h
[17] = target: T3, ATP-dependent translocase ABCB1; assay: Negative allosteric modulator activity at human P-gp Q1193T mutant expressed in HEK293FT cells assessed as fold change in intracellular doxorubicin accumulation using doxorubicin as substrate at 1 uM incubated for 150 mins by microplate reader assay relative to DMSO; type: cell-based; settings: 2.5 h
[18] = target: T1, ATP-dependent translocase ABCB1; assay: Negative allosteric modulator activity at human P-gp Q1193A mutant expressed in HEK293FT cells assessed as increase in intracellular doxorubicin accumulation using doxorubicin as substrate at 1 uM incubated for 150 mins by microplate reader assay (reference value: 53.6 +/- 3 %); type: cell-based; settings: 2.5 h
[19] = target: ATP-dependent translocase ABCB1 (Homo sapiens, UniProt P08183, H1195A); assay: Negative allosteric modulator activity at human P-gp H1195A mutant expressed in HEK293FT cells assessed as increase in intracellular doxorubicin accumulation using doxorubicin as substrate at 1 uM incubated for 150 mins by microplate reader assay (reference value: 78.1 +/- 1.4 %); type: cell-based; settings: 2.5 h
[20] = target: ATP-dependent translocase ABCB1 (Homo sapiens, UniProt P08183, I1115A); assay: Negative allosteric modulator activity at human P-gp I1115A mutant expressed in HEK293FT cells assessed as increase in intracellular doxorubicin accumulation using doxorubicin as substrate at 1 uM incubated for 150 mins by microplate reader assay (reference value: 91.6 +/- 4.4 %); type: cell-based; settings: 2.5 h

T2 sequence (P08183 whole entry Q1193F): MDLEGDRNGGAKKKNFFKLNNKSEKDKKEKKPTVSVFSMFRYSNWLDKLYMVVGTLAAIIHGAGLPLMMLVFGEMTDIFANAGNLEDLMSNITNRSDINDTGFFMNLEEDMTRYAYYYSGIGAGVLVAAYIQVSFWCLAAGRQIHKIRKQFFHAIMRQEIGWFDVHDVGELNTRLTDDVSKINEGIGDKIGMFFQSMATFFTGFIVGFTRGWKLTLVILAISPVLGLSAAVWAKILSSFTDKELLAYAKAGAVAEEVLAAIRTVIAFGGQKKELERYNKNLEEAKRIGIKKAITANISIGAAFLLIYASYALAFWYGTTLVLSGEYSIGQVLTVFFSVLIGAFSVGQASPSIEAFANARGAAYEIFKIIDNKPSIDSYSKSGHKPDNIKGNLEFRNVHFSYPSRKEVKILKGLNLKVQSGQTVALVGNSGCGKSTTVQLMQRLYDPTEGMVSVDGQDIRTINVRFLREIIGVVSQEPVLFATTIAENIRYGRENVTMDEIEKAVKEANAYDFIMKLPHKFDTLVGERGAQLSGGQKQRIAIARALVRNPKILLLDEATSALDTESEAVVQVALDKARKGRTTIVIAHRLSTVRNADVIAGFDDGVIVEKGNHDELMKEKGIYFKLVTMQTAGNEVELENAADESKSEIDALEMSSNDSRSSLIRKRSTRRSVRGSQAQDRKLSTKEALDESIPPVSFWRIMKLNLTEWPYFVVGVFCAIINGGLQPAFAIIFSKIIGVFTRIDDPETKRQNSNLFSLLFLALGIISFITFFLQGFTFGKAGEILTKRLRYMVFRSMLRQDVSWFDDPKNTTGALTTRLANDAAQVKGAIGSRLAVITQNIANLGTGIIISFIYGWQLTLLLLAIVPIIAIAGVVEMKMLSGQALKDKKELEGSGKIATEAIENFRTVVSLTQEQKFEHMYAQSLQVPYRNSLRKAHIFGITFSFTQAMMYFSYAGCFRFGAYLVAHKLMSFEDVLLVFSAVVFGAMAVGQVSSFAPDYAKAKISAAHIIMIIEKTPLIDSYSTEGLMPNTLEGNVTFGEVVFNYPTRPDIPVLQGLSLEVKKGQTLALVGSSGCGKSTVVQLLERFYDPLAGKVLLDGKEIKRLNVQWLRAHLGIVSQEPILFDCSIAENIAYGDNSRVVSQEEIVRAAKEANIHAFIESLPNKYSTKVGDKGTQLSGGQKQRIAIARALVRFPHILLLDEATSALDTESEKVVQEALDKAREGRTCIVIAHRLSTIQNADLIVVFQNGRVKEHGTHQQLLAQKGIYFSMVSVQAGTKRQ
T3 sequence (P08183 whole entry Q1193T): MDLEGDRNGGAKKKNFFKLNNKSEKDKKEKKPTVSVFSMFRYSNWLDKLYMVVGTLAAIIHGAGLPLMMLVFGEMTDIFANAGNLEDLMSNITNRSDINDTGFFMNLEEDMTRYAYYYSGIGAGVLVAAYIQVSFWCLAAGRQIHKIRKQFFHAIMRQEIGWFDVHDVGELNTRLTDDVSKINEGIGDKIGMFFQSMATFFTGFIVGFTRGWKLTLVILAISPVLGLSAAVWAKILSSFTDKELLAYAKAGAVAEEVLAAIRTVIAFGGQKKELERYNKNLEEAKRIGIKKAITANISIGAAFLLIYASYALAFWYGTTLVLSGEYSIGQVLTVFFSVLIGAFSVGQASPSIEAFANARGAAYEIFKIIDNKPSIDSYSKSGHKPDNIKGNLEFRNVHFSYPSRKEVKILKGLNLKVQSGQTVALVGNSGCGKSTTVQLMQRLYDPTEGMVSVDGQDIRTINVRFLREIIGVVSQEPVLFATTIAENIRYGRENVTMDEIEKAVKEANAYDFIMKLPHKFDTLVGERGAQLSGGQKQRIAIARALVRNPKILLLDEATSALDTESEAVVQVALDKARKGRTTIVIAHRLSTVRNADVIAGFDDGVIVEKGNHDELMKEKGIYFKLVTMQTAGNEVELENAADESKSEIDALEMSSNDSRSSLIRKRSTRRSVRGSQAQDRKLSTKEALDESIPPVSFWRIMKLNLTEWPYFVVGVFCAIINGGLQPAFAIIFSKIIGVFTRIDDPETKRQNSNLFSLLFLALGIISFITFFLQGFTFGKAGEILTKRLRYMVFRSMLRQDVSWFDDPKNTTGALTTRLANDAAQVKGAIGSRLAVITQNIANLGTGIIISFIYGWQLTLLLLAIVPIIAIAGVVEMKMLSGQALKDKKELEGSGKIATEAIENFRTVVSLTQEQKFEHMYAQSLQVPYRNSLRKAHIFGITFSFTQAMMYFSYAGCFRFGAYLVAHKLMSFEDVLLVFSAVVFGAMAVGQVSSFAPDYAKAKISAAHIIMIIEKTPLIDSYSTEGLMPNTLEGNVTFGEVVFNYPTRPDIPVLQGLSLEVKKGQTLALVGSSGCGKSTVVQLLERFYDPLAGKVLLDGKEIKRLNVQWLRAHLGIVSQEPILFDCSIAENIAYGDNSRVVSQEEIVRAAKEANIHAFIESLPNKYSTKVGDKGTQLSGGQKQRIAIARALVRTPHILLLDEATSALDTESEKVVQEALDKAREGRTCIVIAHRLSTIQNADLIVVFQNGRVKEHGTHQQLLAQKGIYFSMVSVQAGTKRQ
T1 sequence (P08183 whole entry Q1193A): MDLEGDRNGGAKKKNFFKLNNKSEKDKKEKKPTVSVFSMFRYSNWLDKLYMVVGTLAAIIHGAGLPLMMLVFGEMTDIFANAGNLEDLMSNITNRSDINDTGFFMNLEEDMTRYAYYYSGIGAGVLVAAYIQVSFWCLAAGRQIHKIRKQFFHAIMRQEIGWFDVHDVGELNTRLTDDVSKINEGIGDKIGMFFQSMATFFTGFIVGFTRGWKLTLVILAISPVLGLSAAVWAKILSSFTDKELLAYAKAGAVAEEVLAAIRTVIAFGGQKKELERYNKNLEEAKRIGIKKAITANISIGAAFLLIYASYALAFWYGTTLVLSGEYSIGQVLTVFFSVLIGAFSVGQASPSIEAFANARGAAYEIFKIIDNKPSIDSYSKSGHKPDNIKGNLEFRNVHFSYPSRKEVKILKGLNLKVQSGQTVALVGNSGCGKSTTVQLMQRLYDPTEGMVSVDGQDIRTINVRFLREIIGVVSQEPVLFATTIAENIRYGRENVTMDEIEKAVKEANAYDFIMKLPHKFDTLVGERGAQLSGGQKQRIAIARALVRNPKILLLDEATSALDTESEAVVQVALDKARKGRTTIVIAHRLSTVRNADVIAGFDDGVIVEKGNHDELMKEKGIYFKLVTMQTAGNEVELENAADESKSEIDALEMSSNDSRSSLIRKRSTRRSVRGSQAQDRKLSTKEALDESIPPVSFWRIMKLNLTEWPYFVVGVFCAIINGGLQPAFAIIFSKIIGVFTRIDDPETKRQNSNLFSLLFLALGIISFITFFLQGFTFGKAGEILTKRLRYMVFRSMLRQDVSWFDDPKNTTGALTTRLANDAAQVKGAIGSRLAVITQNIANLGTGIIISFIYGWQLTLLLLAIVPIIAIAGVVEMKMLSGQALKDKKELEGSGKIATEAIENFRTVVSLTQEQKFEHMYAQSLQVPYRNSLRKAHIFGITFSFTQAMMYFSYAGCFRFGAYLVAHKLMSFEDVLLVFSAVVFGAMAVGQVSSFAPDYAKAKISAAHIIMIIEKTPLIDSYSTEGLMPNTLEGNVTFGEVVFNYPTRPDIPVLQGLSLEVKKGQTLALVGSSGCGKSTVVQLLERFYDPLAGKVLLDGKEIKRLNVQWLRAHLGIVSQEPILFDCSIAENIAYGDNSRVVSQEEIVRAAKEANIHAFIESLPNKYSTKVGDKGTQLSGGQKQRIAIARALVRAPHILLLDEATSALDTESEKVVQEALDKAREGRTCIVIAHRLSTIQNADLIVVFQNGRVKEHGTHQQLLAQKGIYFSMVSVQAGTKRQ
Sequence of ATP-dependent translocase ABCB1 (Homo sapiens, UniProt P08183, L1113A) (P08183 whole entry L1113A): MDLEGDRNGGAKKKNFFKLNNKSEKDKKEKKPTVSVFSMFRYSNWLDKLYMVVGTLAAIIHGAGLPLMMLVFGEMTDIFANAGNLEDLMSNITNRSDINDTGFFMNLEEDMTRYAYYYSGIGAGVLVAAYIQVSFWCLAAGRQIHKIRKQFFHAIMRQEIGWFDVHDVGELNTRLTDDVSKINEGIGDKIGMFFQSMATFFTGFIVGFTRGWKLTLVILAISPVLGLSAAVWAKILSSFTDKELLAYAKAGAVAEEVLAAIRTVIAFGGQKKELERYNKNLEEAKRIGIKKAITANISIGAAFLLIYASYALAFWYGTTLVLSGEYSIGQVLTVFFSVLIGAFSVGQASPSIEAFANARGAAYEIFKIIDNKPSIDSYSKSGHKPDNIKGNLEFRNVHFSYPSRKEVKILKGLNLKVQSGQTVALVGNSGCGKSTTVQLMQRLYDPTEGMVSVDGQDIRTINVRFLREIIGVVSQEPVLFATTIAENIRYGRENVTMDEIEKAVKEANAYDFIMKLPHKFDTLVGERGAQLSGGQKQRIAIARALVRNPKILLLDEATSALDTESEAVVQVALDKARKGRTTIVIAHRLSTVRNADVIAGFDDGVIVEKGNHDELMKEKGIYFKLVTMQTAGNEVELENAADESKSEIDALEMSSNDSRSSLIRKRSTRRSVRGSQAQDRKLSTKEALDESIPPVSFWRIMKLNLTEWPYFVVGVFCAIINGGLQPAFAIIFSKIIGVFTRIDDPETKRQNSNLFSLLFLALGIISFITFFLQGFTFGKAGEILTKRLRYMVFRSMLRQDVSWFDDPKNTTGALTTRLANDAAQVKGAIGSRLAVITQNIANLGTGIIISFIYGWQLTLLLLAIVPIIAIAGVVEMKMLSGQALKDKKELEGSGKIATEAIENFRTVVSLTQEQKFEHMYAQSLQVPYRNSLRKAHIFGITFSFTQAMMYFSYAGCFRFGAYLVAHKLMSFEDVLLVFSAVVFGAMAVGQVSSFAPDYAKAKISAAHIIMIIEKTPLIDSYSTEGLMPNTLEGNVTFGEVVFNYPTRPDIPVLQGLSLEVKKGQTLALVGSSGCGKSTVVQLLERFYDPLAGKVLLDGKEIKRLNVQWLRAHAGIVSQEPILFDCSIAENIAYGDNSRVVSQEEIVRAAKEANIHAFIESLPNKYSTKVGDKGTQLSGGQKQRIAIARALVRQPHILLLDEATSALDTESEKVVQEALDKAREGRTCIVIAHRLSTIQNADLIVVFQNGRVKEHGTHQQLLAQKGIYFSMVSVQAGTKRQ

fold change (FC) [1]: 1.1
fold change (FC) [2]: 1.2
fold change (FC) [3]: 1
Activity [4]: 81.4%
fold change (FC) [5]: 1.1
fold change (FC) [6]: 1
fold change (FC) [7]: 8.5
Activity [8]: 93.5%
Activity [9]: 74.6%
fold change (FC) [10]: 51.4
Activity [11]: 97.2%
Activity [12]: 82.2%
fold change (FC) [13]: 56.8
fold change (FC) [14]: 1.9
Activity [15]: 102.5%
Activity [16]: 71.4%
fold change (FC) [17]: 1.3
Activity [18]: 59.8%
Activity [19]: 83.9%
Activity [20]: 89.7%
Structure (SMILES): O=c1cc(-c2ccc(OCCOCCNCc3ccccc3)cc2)oc2ccccc12
